Common to all, as to type: functional, cell-based
In assay [1] the test system is JIMT-1. Kind of assay: Antiproliferative activity against human JIMT-1 cells after 72 hrs by SRB assay. The following applies: JIMT-1, 72 h. On the technique in general: The SRB assay estimates cell density from bound dye.
For a further assay, the system named is RT-4. Kind of assay: Antiproliferative activity against human RT-4 cells after 3 days by SRB assay. Conditions: RT-4, 72 h.
Another assay deals with MCF-12A. Kind of assay: Antiproliferative activity against human MCF-12A cells.
The subject of another assay is RT-112. The experiment in a line: Antiproliferative activity against human RT-112 cells after 3 days by SRB assay. The following applies: RT-112, 72 h.
Assay [2] has as its system JIMT-1. Kind of assay: Induction of apoptosis in human JIMT-1 cells at high concentration assessed as change in cleaved caspase-3 levels and measured by Western blot analysis.
The test system of assay [3] is JIMT-1. The experiment in a line: Induction of DNA damage in human JIMT-1 cells at high concentration assessed as change in p-H2AX levels and measured by Western blot analysis.
Assay [4] deals with JIMT-1. The experiment in a line: Induction of mitotic arrest in human JIMT-1 cells at high concentration assessed as change in p-histone H3 levels and measured by Western blot analysis. A general note: Immunoblotting shows a protein as a band on a membrane.
For assay [5], the system named is JIMT-1. Kind of assay: Induction of apoptosis in human JIMT-1 cells at high concentration assessed as change in cleaved PARP levels and measured by Western blot analysis.

The source made the active and inactive calls. The rule behind the calls is not given here. Some results are limits rather than exact numbers.

Among the data in ChEMBL document CHEMBL5052853, “Isoxazole derivatives targeting tacc3 as anticancer agents” (2021) are IC50 and Activity values, retold here.

For `COc1ccc(-c2cc(Nc3ccnc(N4CCOCC4)n3)on2)cc1F`, the IC50 (commonly the concentration at which inhibition is half-maximal) in the assay with JIMT-1 [1] was determined as 0.013 µM.
The same measure, in the same setting: under `COc1ccc(-c2cc(Nc3ccnc(N4CCN(CCO)CC4)n3)on2)cc1` stands over 10 µM.
The same measure, in the same setting: under `c1cc(Nc2cc(-c3ccc4c(c3)OCO4)no2)nc(N2CCOCC2)n1` stands 0.87 µM; under `COc1ccc(-c2cc(Nc3ccnc(N4CCCC4)n3)on2)cc1F`, 0.049 µM; under `COc1ccc(-c2cc(Nc3ccnc(N4CCC(C)CC4)n3)on2)cc1`, 0.204 µM.
Still for that read-out and setting: in the case of `COc1ccc(-c2cc(Nc3ccnc(N4C5CCC4COC5)n3)on2)cc1` it was 0.16 µM.
Compound `CSc1ccc(-c2cc(Nc3ccnc(N4CCOCC4)n3)on2)cc1` had an IC50 with JIMT-1 [1] of 0.03 µM.
On the same count and under the same terms, in the case of `COc1cccc(-c2cc(Nc3ccnc(N4CCOCC4)n3)on2)c1` it was 3.44 µM.
Same read-out and setting: in the case of `FC(F)Oc1ccc(-c2cc(Nc3ccnc(N4CCOCC4)n3)on2)cc1` it was 4.23 µM; in that of `CCc1ccc(-c2cc(Nc3ccnc(N4CCOCC4)n3)on2)cc1`, 0.259 µM.
The same measure, in the same setting: under `CC(C)c1ccc(-c2cc(Nc3ccnc(N4CCOCC4)n3)on2)cc1` stands 3.61 µM; under `COc1ccc(-c2cc(Nc3ccnc(N4CCC(F)CC4)n3)on2)cc1F`, 0.145 µM; under `COc1ccccc1-c1cc(Nc2ccnc(N3CCOCC3)n2)on1`, 8.27 µM.
In the assay on JIMT-1 [1], `CC(F)(F)c1ccc(-c2cc(Nc3ccnc(N4CCOCC4)n3)on2)cc1` registered an IC50 of over 10 µM.
Still for that read-out and setting: in the case of `COc1ccc(-c2cc(Nc3ccnc(N4CCC(NN5CCOCC5)CC4)n3)on2)cc1` it was 0.8 µM; in that of `CCOc1ccc(-c2cc(Nc3ccnc(N4CCOCC4)n3)on2)cc1`, 0.81 µM; in that of `COc1ccc(-c2cc(N(C)c3ccnc(N4CCOCC4)n3)on2)cc1`, 0.16 µM.
Still for that read-out and setting: under `Fc1ccc(-c2cc(Nc3ccnc(N4CCOCC4)n3)on2)cc1` stands over 10 µM; under `COc1ccc(-c2cc(Nc3ccnc(N4C[C@@H](C)O[C@@H](C)C4)n3)on2)cc1`, 0.23 µM.
In the assay with JIMT-1 [1], `c1ccc(-c2cc(Nc3ccnc(N4CCOCC4)n3)on2)cc1` had an IC50 of over 10 µM.
As to `COc1ccc(-c2cc(Nc3ccnc(N4CCC(F)CC4)n3)on2)cc1`, in the assay on JIMT-1 [1], the IC50 was determined as 0.13 µM.
Same read-out and setting: under `COc1ccc(-c2cc(Nc3ccnc(N4CCCC4)n3)on2)cc1` stands 0.105 µM.
Still for that read-out and setting: in the case of `CCOC(=O)C1CCN(c2nccc(Nc3cc(-c4ccc(OC)cc4)no3)n2)CC1` it was over 10 µM; in that of `COc1ccc(-c2cc(Nc3ccnc(N4CCC(C(F)(F)F)CC4)n3)on2)cc1`, 0.056 µM; in that of `COc1ccc(-c2cc(Nc3cc(C)nc(N4CCC(F)CC4)n3)on2)cc1`, 1 µM.
Same read-out and setting: under `FC(F)(F)c1ccc(-c2cc(Nc3ccnc(N4CCOCC4)n3)on2)cc1` stands over 10 µM; under `COc1ccc(-c2cc(Nc3ccnc(N4CCC(F)(F)CC4)n3)on2)cc1`, 0.37 µM.
`CCCOc1ccc(-c2cc(Nc3ccnc(N4CCOCC4)n3)on2)cc1` came in with a half-inhibitory concentration (IC50) in the assay on JIMT-1 [1] of over 10 µM.
The compound `Clc1ccc(-c2cc(Nc3ccnc(N4CCOCC4)n3)on2)cc1` yielded an IC50 with JIMT-1 [1] of over 10 µM.
Same read-out and setting: under `COc1ccc(-c2cc(Nc3nc(N4CCC(F)CC4)ncc3F)on2)cc1` stands 0.54 µM; under `COc1ccc(-c2cc(Nc3ccnc(N4C[C@@H]5C[C@H]4CO5)n3)on2)cc1`, 2.02 µM.
With `FC(F)(F)Oc1ccc(-c2cc(Nc3ccnc(N4CCOCC4)n3)on2)cc1`, in the assay on JIMT-1 [1], the IC50 is over 10 µM.
The same measure, in the same setting: under `COc1ccc(-c2cc(Nc3ccnc(N4CCC(C(=O)O)CC4)n3)on2)cc1` stands over 10 µM.
On the same count and under the same terms, in the case of `Oc1ccc(-c2cc(Nc3ccnc(N4CCOCC4)n3)on2)cc1` it was over 10 µM; in that of `CN(C)c1ccc(-c2cc(Nc3ccnc(N4CCC(F)CC4)n3)on2)cc1`, 0.157 µM; in that of `COc1ccc(-c2cc(Nc3ccnc(N4CCS(=O)(=O)CC4)n3)on2)cc1`, over 10 µM.
As for `CC(C)CNc1ccnc(NCc2csc(-c3ccccc3)n2)n1`, the values for the IC50 in the assay on RT-4, in the assay on MCF-12A and in the assay on RT-112 were 7.07 µM, over 10 µM and 8.71 µM, respectively. Besides, the outcome in the assay with JIMT-1 [2], in the assay on JIMT-1 [3], in the assay on JIMT-1 [4] and with JIMT-1 [5] was Active.
In the assay with JIMT-1 [1], `COc1ccc(-c2cc(Nc3ccnc(N4C5CCC4COC5)n3)on2)cc1F` registered an IC50 of 0.053 µM.
The compound `COc1ccc(-c2cc(Nc3ccnc(N4CCSCC4)n3)on2)cc1` yielded an IC50 in the assay with JIMT-1 [1] of 0.113 µM. Against the preceding compound, the IC50 is about 2.1-fold higher.
As to `COc1ccc(-c2cc(Nc3ccnc(N4CCN(C)CC4)n3)on2)cc1`, in the assay with JIMT-1 [1], the IC50 worked out at 1.56 µM.
Same read-out and setting: under `c1ccc(COc2ccc(-c3cc(Nc4ccnc(N5CCOCC5)n4)on3)cc2)cc1` stands over 10 µM; under `CN(C)c1ccc(-c2cc(Nc3ccnc(N4CCOCC4)n3)on2)cc1`, 0.12 µM; under `COc1ccc(-c2cc(Nc3ccnc(N4CCOCC4)n3)on2)cn1`, 7.3 µM.
In turn, `COc1ccc(-c2cc(Nc3ccnc(N4CCOCC4)n3)on2)cc1Cl` showed an IC50 in the assay on JIMT-1 [1] of 0.48 µM. Compared with the last compound, the IC50 is about 15-fold lower.
In the case of `CCN(Cc1ccncc1)Cc1c(O)ccc2c(-c3cc4ccccc4oc3=O)cc(=O)oc12`, the IC50 is 5.25 µM in the assay on RT-4, over 10 µM in the assay with MCF-12A and 1.2 µM in the assay on RT-112. Further, the outcome in the assay on JIMT-1 [2], in the assay on JIMT-1 [3], with JIMT-1 [4] and in the assay on JIMT-1 [5] was Active.
In the assay with JIMT-1 [1], `COc1ccc(-c2cc(Nc3ccnc(N4CCCCC4)n3)on2)cc1` returned an IC50 of 0.116 µM.
Same read-out and setting: in the case of `Cc1ccc(-c2cc(Nc3ccnc(N4CCOCC4)n3)on2)cc1` it was 0.64 µM; in that of `COc1ccc(-c2cc(Nc3ccnc(N4CC5CCC(C4)O5)n3)on2)cc1`, 3.09 µM; in that of `COc1ccc(-c2cc(Nc3ccnc(N4CCC(CCO)CC4)n3)on2)cc1`, 3.97 µM.
Same read-out and setting: in the case of `COc1ccc(-c2cc(Nc3ccnc(N4C[C@H]5C[C@@H]4CO5)n3)on2)cc1` it was 0.48 µM; in that of `COc1ccc(-c2cc(Nc3ccnc(N4CCNCC4)n3)on2)cc1`, over 10 µM; in that of `COc1ccc(-c2cc(Nc3ccnc(N4CCOCC4)n3)on2)cc1OC`, 0.73 µM.
